# Measured values published in US20240308953A1, “SOLUBLE CHELATOR FOR TARGETING RECOMBINANT PROTEINS” (CUBE BIOTECH GMBH, priority 2021, published 2024).
# Test system: His-tagged proteins
# Assay: surface plasmon resonance, immobilized chelator, protein loss during wash
# Format: binding
# Settings: immobilized for surface plasmon resonance measurements
# Source text: The affinity of the soluble chelator of the present invention for His-tagged proteins is much higher, compared to the NTA analoga. […] So, a stable, non-reversible protein binding via affinity bonds between metal and poly-His is feasible.
smiles,measurement,value
"O=C(O)CN(CC(=O)O)CC(=O)O [NTA, nitrilotriacetic acid]",protein loss from the chip,protein leaching during wash
